Experimental data published in patent publication US5635594A, “Gallinacins - antibiotic peptides” (University of California, Los Angeles, priority 1994, dated 1997).
Where no end group is shown, it is not given here.

System: Candida albicans strain 820
Experiment: ultrasensitive radial diffusion assay in agarose gels, Candida
Format: cell-based
Details: underlay agar pH 7.4, overnight incubation, FIG. 5c
Method: Aliquots of these column fractions were dried by vacuum centrifugation, resuspended in a small volume (approximately 17 μl) of 0.01% HOAc and 5 μl samples were tested for antimicrobial activity against Escherichia coli ML-35, Listeria monocytogenes strain EGD and Candida albicans strain 820, by the ultrasensitive radial diffusion technique described by Lehrer, R. I. et al. J Immunol Meth (1991) 137:167-173. […] A 1 mm diameter clear zone around the sample well after overnight incubation corresponded to 10 units of microbicidal activity.
The radial diffusion assay in agarose gels described in Example 1 was also used to test the activity of the purified gallinacins. FIGS. 5a, 5b and 5c show the results against three test organisms in units described as above. Rabbit defensin (NP-1) and human defensin (HNP-1) were used as controls.

Row | Substance | antifungal activity against Candida albicans
1 | Gal1α: antimicrobial peptide isolated from chicken neutrophils; differs from Gal1 only in positions 10, 20 and 32 | effective
2 | Gal2: 36-residue antimicrobial peptide isolated from chicken neutrophils, six cysteines in three intramolecular disulfide bonds (LFCKGGSCHFGGCPSHLIKVGSCFGFRSCCKWPWNA; not fully specified (residues 3, 8, 13, 23, 29, 30, bridges); also: native peptide: three intramolecular disulfides, pairing not given here) | relatively poor activity
3 | Gal1: 39-residue antimicrobial peptide isolated from chicken neutrophils, six cysteines in three intramolecular disulfide bonds | effective
